Laboratory results from ChEMBL document CHEMBL4706587 (Eur J Med Chem, 2020).

Key:
[1] = biological target: T1, Amine oxidase [flavin-containing] B (Homo sapiens, UniProt P27338); settings: BTI, 1 h, read-out: INH
T1 sequence (P27338 whole entry): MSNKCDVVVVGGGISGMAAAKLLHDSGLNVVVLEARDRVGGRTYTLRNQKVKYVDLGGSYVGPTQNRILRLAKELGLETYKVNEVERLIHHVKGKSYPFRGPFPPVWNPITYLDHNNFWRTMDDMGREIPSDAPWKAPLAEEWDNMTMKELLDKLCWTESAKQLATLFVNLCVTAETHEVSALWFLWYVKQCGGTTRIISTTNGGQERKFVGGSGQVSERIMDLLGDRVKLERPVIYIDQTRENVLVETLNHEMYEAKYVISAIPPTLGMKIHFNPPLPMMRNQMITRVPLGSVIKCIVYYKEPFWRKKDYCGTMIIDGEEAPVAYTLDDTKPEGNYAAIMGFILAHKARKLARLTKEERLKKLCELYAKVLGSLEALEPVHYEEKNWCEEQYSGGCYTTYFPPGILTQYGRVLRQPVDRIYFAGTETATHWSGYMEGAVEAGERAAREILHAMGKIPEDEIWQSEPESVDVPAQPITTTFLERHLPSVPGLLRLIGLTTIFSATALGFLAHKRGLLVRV
Description: Inhibition of recombinant human MAO-B expressed in baculovirus infected BTI insect cells at 1 uM using p-tyramine as substrate preincubated for 30 mins followed by substrate addition and measured after 1 hr by fluorimetric analysis relative to control

[2] = biological target: T1, Amine oxidase [flavin-containing] B; assay: Inhibition of recombinant human MAO-B expressed in baculovirus infected BTI insect cells using p-tyramine as substrate preincubated for 30 mins followed by substrate addition and measured after 1 hr by fluorimetric analysis
[3] = biological target: T2, 5-hydroxytryptamine receptor 1A (Homo sapiens, UniProt P08908); assay: Displacement of [3H]8-OH-DPAT from human 5HT1A receptor expressed in HEK293 cells incubated at room temperature for 1 hr by microbeta plate reader analysis; type: cell-based
T2 sequence (P08908 whole entry): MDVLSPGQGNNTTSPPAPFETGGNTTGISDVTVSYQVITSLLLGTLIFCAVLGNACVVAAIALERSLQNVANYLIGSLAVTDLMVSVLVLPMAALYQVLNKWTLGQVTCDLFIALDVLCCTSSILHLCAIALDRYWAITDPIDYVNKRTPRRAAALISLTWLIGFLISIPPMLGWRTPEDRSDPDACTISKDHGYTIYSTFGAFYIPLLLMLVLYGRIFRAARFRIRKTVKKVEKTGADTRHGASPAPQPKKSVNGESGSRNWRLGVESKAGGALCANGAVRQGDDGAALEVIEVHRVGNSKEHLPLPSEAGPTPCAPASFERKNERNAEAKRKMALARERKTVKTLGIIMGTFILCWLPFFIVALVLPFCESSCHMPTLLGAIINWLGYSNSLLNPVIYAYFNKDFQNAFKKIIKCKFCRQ

[4] = biological target: 5-hydroxytryptamine receptor 2A (Homo sapiens, UniProt P28223); assay: Displacement of [3H]-Ketanserin from human 5HT2A receptor expressed in CHOK1 cells incubated at 27 degree C for 1 hr by microbeta plate reader analysis; type: cell-based, CHO-K1
5-hydroxytryptamine receptor 2A, sequence (P28223 whole entry): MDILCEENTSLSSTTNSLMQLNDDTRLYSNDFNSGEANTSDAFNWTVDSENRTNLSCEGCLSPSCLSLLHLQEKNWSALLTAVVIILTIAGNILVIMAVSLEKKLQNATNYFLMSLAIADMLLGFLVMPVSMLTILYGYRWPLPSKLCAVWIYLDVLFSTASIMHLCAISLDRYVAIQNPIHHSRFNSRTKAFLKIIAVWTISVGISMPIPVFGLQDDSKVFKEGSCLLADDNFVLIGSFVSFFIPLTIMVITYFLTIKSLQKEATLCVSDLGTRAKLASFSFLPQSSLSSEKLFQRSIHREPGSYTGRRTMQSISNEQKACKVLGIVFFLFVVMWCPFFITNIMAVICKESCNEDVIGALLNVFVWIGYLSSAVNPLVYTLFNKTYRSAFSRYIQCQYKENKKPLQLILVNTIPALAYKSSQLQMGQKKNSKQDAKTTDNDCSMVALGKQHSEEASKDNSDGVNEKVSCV

[5] = biological target: 5-hydroxytryptamine receptor 7 (Homo sapiens, UniProt P34969); assay: Displacement of [3H]-5-CT from human 5HT7 receptor expressed in HEK293 cells measured after 1 hr by microbeta plate reader analysis; type: cell-based
5-hydroxytryptamine receptor 7, sequence (P34969 whole entry): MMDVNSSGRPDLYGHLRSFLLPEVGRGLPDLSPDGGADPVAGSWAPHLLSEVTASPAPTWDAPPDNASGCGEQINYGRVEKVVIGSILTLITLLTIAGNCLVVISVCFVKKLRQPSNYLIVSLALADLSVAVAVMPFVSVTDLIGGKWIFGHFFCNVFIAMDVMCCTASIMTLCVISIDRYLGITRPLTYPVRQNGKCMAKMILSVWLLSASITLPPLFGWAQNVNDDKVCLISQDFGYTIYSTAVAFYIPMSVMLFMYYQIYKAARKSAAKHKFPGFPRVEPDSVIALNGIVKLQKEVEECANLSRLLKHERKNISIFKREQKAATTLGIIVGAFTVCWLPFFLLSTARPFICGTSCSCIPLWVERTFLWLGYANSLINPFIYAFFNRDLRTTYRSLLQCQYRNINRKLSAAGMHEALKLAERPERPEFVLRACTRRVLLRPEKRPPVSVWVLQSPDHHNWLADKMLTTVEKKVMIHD

D(2) dopamine receptor = D(2) dopamine receptor (Homo sapiens, UniProt P14416); assay: Displacement of [3H]-raclopride from human D2 receptor expressed in HEK293 cells measured after 1 hr by microbeta plate reader analysis; type: cell-based
D(2) dopamine receptor, sequence (P14416 whole entry): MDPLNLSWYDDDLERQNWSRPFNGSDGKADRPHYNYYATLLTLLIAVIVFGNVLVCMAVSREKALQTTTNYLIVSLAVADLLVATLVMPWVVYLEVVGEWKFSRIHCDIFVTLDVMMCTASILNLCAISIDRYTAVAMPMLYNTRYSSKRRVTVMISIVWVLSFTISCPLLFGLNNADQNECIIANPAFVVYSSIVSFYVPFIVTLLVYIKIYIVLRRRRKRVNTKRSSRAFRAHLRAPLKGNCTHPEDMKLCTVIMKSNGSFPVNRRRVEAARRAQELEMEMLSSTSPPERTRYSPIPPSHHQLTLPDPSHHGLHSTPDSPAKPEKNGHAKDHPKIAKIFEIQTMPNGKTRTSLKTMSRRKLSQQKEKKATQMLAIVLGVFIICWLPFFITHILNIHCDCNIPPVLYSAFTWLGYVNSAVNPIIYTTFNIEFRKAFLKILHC

[6] = biological target: T3, Amine oxidase [flavin-containing] A (Homo sapiens, UniProt P21397); assay: Inhibition of recombinant human MAO-A expressed in baculovirus infected BTI insect cells using p-tyramine as substrate preincubated for 30 mins followed by substrate addition and measured after 1 hr by fluorimetric analysis
T3 sequence (P21397 whole entry): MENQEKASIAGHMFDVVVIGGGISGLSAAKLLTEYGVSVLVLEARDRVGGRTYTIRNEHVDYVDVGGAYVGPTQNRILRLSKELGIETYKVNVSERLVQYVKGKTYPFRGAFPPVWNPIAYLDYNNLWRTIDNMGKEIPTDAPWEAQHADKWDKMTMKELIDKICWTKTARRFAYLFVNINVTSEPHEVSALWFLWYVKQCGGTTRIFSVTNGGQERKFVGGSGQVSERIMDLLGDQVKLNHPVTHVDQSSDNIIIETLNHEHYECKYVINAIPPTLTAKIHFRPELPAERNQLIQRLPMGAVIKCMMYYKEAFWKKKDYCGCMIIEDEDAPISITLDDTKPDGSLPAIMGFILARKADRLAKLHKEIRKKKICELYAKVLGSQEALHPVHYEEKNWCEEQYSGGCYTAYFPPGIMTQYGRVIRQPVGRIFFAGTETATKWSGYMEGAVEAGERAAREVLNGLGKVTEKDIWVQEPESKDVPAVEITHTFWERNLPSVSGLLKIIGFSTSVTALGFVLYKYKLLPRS

[7] = biological target: T4, adrenergic alpha1A receptor (Homo sapiens, UniProt P35348); assay: Displacement of [3H]-prazosin from human recombinant adrenergic alpha1A receptor at 1 uM incubated for 60 mins by radiometric scintillation analysis relative to control; settings: probe [3H]-prazosin
T4 sequence (P35348 whole entry): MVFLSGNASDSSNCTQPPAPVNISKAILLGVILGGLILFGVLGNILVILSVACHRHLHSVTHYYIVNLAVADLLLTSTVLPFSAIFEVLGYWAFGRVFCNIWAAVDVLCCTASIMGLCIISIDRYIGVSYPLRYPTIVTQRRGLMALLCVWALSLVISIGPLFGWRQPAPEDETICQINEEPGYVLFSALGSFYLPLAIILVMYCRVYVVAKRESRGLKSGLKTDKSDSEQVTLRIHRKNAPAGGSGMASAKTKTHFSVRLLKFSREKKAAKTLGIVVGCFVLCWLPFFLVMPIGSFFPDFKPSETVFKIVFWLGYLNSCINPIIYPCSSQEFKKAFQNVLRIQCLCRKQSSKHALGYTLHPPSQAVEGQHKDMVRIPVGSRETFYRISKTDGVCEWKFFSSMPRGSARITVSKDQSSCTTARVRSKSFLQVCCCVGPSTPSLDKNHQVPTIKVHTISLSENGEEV

beta1 adrenoceptor = beta1 adrenoceptor (Homo sapiens, UniProt P08588); assay: Displacement of [3H](-)CGP 12177 from human recombinant beta1 adrenoceptor at 1 uM after 60 mins by radiometric scintillation analysis relative to control; settings: probe [3H](-)CGP 12177
beta1 adrenoceptor, sequence (P08588 whole entry): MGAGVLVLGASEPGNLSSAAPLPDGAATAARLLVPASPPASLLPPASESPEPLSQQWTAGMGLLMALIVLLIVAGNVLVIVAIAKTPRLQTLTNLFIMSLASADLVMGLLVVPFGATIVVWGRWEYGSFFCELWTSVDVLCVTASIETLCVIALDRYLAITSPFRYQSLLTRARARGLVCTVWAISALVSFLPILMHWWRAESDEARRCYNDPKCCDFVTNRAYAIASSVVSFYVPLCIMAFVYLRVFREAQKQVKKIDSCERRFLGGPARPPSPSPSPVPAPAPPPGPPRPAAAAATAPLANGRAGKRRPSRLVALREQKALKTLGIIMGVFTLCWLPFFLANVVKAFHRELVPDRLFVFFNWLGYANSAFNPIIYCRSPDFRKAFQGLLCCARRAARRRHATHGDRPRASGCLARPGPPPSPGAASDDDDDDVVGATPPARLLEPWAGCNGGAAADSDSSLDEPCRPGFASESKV

histamine H1 receptor = histamine H1 receptor (Homo sapiens, UniProt P35367); assay: Displacement of [3H]pyrilamine from human recombinant histamine H1 receptor at 1 uM after 60 mins by radiometric scintillation analysis relative to control; settings: probe [3H]pyrilamine
histamine H1 receptor, sequence (P35367 whole entry): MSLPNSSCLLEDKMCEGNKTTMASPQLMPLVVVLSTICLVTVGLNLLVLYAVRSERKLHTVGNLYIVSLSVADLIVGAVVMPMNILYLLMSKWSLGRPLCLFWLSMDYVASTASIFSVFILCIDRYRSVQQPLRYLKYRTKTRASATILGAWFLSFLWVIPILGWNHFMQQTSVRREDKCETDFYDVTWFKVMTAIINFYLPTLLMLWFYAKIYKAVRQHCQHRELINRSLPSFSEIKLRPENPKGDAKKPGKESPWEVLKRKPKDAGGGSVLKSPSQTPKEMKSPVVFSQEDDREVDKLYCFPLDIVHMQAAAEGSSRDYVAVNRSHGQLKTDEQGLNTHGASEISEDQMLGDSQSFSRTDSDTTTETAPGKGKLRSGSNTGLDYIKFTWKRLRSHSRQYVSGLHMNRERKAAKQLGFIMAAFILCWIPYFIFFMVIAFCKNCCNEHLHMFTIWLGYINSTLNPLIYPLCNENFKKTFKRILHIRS

muscarinic M1 receptor = biological target: T5, muscarinic M1 receptor (Homo sapiens, UniProt P11229); assay: Displacement of [3H]pirenzepine from human recombinant muscarinic M1 receptor at 1 uM after 60 mins by radiometric scintillation analysis relative to control; settings: probe [3H]pirenzepine
T5 sequence (P11229 whole entry): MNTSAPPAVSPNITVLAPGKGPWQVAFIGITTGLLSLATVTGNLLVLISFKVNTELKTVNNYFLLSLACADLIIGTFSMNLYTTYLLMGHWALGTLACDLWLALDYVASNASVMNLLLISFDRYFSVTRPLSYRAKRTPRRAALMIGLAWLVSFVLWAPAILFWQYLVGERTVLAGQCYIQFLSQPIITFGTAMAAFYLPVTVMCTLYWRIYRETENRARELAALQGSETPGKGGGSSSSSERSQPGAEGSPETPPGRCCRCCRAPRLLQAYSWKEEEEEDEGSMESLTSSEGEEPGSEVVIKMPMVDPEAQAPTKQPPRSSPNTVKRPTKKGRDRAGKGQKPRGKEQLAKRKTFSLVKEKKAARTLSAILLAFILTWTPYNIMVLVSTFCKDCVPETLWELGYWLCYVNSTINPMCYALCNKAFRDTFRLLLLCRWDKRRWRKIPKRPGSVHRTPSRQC

[8] = Effective permeability of compound in PBS at pH 7.4 at 100 uM incubated for 5 hrs by PAMPA-BBB based UPLC-MS analysis; type: ADME; settings: read-out: Peff
[9] = Metabolic stability in rat liver microsomes assessed as intrinsic clearance at 10 uM incubated for 10 mins followed by NADPH regeneration system addition and measured after 60 mins by UPLC-MS analysis; type: ADME, Microsome; settings: time 70 min, read-out: CLH
[10] = Cmax in Wistar rat at 3 mg/kg, po measured up to 240 mins; type: ADME, organism-based; parameters: route oral, dose 3 mg/kg, time <=240; settings: in vivo
[11] = Tmax in Wistar rat at 3 mg/kg, po measured up to 240 mins; type: ADME, organism-based; settings: in vivo
[12] = Half life in Wistar rat at 3 mg/kg, po measured up to 240 mins; type: ADME, organism-based; settings: in vivo
[13] = Cytotoxicity against mouse C8D1A astrocytes upto 25 uM by MTT assay; settings: astrocyte
[14] = Cytotoxicity against mouse C8D1A astrocytes upto 25 uM by LDH assay; settings: astrocyte
[15] = biological target: 5-hydroxytryptamine receptor 6 (Homo sapiens, UniProt P50406); assay: Displacement of [3H]-LSD from human 5HT6 receptor expressed in HEK293 cells measured after 1 hr by microbeta plate reader method; type: cell-based
5-hydroxytryptamine receptor 6, sequence (P50406 whole entry): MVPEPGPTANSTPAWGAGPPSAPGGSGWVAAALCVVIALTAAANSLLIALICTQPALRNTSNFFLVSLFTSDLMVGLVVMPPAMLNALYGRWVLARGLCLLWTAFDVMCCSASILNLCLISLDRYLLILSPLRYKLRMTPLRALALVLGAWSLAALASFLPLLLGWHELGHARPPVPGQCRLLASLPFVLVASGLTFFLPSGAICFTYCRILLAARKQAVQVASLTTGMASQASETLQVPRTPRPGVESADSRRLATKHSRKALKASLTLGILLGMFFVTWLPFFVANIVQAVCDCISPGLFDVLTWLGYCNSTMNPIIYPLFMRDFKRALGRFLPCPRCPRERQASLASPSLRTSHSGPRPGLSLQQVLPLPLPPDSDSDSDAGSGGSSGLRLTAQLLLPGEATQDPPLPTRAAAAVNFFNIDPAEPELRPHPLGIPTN

O=S(=O)(c1ccccc1)n1ccc2c(N3CCNCC3)cccc21
inhibition at 1 µM [1]: 3%

C#CCN(C)Cc1ccc(OCCCCCN2CCN(c3cccc4c3ccn4S(=O)(=O)c3ccccc3)CC2)cc1
IC50 [2]: 154 nM
Ki [3]: 684 nM
Ki [4]: 420 nM
Ki [5]: 8000 nM
Ki (D(2) dopamine receptor): 813 nM
IC50 [6]: 1040 nM
inhibition at 1 h, 1 µM [7]: 37%
inhibition at 1 h, 1 µM (beta1 adrenoceptor): 5%
inhibition at 1 h, 1 µM (histamine H1 receptor): 13%
inhibition at 1 h, 1 µM (muscarinic M1 receptor): 4%
Papp at 5 h, 100 µM [8]: 4.84 ×10⁻⁶ cm/s
CLint scaled at 10 µM [9]: 85 mL/min/kg
Cmax [10]: 72.7 ng/mL
Tmax [11]: 0.5 h
half-life [12]: 28 h
Activity [13]: Non-Toxic
Activity [14]: Non-Toxic
inhibition at 1 µM [1]: 91%

C#CCNC1CCc2c(OCCCCN3CCN(c4cccc5c4ccn5S(=O)(=O)c4ccccc4)CC3)cccc21 (stereo not drawn)
Ki [15]: 50 nM
IC50 [2]: > 1000 nM
inhibition at 1 µM [1]: 44%

C#CCNC1CCc2c(OCCCCCCN3CCN(c4cccc5c4ccn5Cc4cccc(Cl)c4)CC3)cccc21 (stereo not drawn)
Ki [15]: 259 nM
IC50 [2]: > 1000 nM
inhibition at 1 µM [1]: 34%

C[C@H](NCc1ccc(OCCCCCCN2CCN(c3cccc4c3ccn4Cc3cccc(Cl)c3)CC2)cc1)C(N)=O
Ki [15]: 340 nM
IC50 [2]: > 1000 nM
inhibition at 1 µM [1]: 23%

C[C@H](NCc1ccc(OCCCCCN2CCN(c3cccc4c3ccn4S(=O)(=O)c3ccccc3)CC2)cc1)C(N)=O
Ki [15]: 65 nM
IC50 [2]: > 1000 nM
inhibition at 1 µM [1]: 17%

C#CCNC1CCc2c(OCCCCCN3CCN(c4cccc5c4ccn5Cc4cccc(Cl)c4)CC3)cccc21 (stereo not drawn)
Ki [15]: 223 nM
IC50 [2]: 460 nM
inhibition at 1 µM [1]: 80%

C[C@H](NCc1ccc(OCCCCN2CCN(c3cccc4c3ccn4S(=O)(=O)c3ccccc3)CC2)cc1)C(N)=O
Ki [15]: 68 nM
IC50 [2]: > 1000 nM
inhibition at 1 µM [1]: 20%

C#CCN(C)Cc1ccc(OCCCCN2CCN(c3cccc4c3ccn4S(=O)(=O)c3ccccc3)CC2)cc1
Ki [15]: 54 nM
IC50 [2]: > 1000 nM
inhibition at 1 µM [1]: 51%

C[C@H](NCc1ccc(OCCCCN2CCN(c3cccc4c3ccn4Cc3cccc(Cl)c3)CC2)cc1)C(N)=O
Ki [15]: 162 nM
IC50 [2]: > 1000 nM
inhibition at 1 µM [1]: 24%

C#CCN(C)Cc1ccc(OCCCCCN2CCN(c3cccc4c3ccn4Cc3cccc(Cl)c3)CC2)cc1
Ki [15]: 140 nM
IC50 [2]: 30 nM
inhibition at 1 µM [1]: 100%

C#CCN(C)Cc1ccc(OCCCCCCN2CCN(c3cccc4c3ccn4Cc3cccc(Cl)c3)CC2)cc1
Ki [15]: 137 nM
IC50 [2]: > 1000 nM
inhibition at 1 µM [1]: 32%

C#CCNC1CCc2c(OCCCN3CCN(c4cccc5c4ccn5Cc4cccc(Cl)c4)CC3)cccc21 (stereo not drawn)
Ki [15]: 77 nM
IC50 [2]: > 1000 nM
inhibition at 1 µM [1]: 31%

C#CCNC1CCc2c(OCCCCCN3CCN(c4cccc5c4ccn5S(=O)(=O)c4ccccc4)CC3)cccc21 (stereo not drawn)
Ki [15]: 51 nM
IC50 [2]: 163 nM
inhibition at 1 µM [1]: 90%

Clc1cccc(Cn2ccc3c(N4CCNCC4)cccc32)c1
Ki [15]: 7 nM
inhibition at 1 µM [1]: 3%

C#CCN(C)Cc1ccc(OCCCCN2CCN(c3cccc4c3ccn4Cc3cccc(Cl)c3)CC2)cc1
Ki [15]: 195 nM
IC50 [2]: 323 nM
inhibition at 1 µM [1]: 85%

C[C@H](NCc1ccc(OCCCN2CCN(c3cccc4c3ccn4Cc3cccc(Cl)c3)CC2)cc1)C(N)=O
Ki [15]: 158 nM
IC50 [2]: > 1000 nM
inhibition at 1 µM [1]: 47%

C#CCNC1CCc2c(OCCN3CCN(c4cccc5c4ccn5Cc4cccc(Cl)c4)CC3)cccc21 (stereo not drawn)
Ki [15]: 100 nM
IC50 [2]: > 1000 nM
inhibition at 1 µM [1]: 35%

C#CCNC1CCc2c(OCCCCN3CCN(c4cccc5c4ccn5Cc4cccc(Cl)c4)CC3)cccc21 (stereo not drawn)
Ki [15]: 113 nM
IC50 [2]: 270 nM
inhibition at 1 µM [1]: 100%

C[C@H](NCc1ccc(OCCCCCN2CCN(c3cccc4c3ccn4Cc3cccc(Cl)c3)CC2)cc1)C(N)=O
Ki [15]: 232 nM
IC50 [2]: > 1000 nM
inhibition at 1 µM [1]: 43%

C#CCN[C@@H]1CCc2ccccc21 [RASAGILINE]
Ki [15]: 1.4 nM
